Laboratory results from US9145405B2, “Oxadiazole compound and preparation method thereof, pharmaceutical composition and use thereof” (SHANGHAI JIAO TONG UNIVERSITY, priority 2011, dated 2015).
≈ marks a conversion by molar mass, not a printed value. Where two headings read alike, the source gives them in different places.

How the values were obtained:
[1] = tested on: Vero cells; assay: Toxicity (half toxic concentration) in the anti-Cox_B3 test on Vero cells; format: cell-based
[2] = tested on: Cox_B3 virus; assay: Anti-Cox_B3 test: inhibition of cytopathic effect (CPE) in infected Vero cells, Reed-Muench; format: cell-based; conditions: for IC50: read-out: IC50 (half-inhibitory concentration for viruses)
Excerpt: The present examples verifies experimental results of anti-Cox_B3 of the compounds 1-137of the present invention, Pleconaril, 3-[3,5-dimethyl-4-[5-(3-methy-1,2-oxazolyl)propoxy]phenyl]-5-(trifluonomethyl) -1,2,4-oxadiazole is used as positive control.

[3] = Cox_B3 virus in Vero cells, CPE, Reed-Muench method

Row | Molecule | TC50 (half of the toxic concentration) ([1]; Vero cells, Cox_B3) | IC50 [2, 3] | TC50 (half of the toxic concentration) [1] | IC50 (half-inhibitory concentration for viruses) [2, 3] | IC50 ([2]; Vero)
1 | Cc1cc(-c2noc(C(F)(F)F)n2)cc(C)c1OCCSc1nnc(C)n1C [Compound 27, 3-[2-[2,6-dimethyl-4-[5-(trifluoromethyl)-1,2,4-oxadiazole-3-yl]phenoxyl]ethylthio]-4,5-dimethyl-4H-1,2,4-triazole] | 39.25 µg/mL | 0.07 µg/mL (≈ 0.169 µM) |  |  | 
2 | 3-[2-[2,6-dimethyl-4-[5-(trifluoromethyl)-1,2,4-oxadiazole-3-yl]phenoxyl]ethoxyl]isoxazole-5-carboxylate [Compound 58] |  |  | 40.67 µg/mL | 0.082 µg/mL | 
3 | Cc1cc(OCCOc2c(C)cc(-c3noc(C(F)(F)F)n3)cc2C)no1 [Compound 1, 3-[3,5-dimethyl-4-[2-(5-methylisoxazole-3-oxy)ethoxyl]phenyl]-5-(trifluoromethyl)-1,2,4-oxadiazole] | 50.67 µg/mL | 0.022 µg/mL (≈ 0.0574 µM) |  |  | 
4 | Cc1nc(-c2ccc(OCCOc3c(C)cc(-c4noc(C(F)(F)F)n4)cc3C)nc2)no1 [Compound 113, 2-[2-[2,6-dimethyl-4-[5-(trifluoromethyl)-1,2,4-oxadiazole-3-yl]phenoxyl]ethoxyl]-5-(5-methyl-1,2,4-oxadiazole-3-yl)-pyridine] | 35.22 µg/mL | 0.036 µg/mL (≈ 0.078 µM) |  |  | 
5 | Cc1cc(CCCOc2c(C)cc(-c3noc(C(F)(F)F)n3)cc2C)on1 [Pleconaril, 3-[3,5-dimethyl-4-[5-(3-methy-1,2-oxazolyl)propoxy]phenyl]-5-(trifluonomethyl) -1,2,4-oxadiazole, reference compound] | 17.25 µg/mL |  |  |  | 0.04 µg/mL (≈ 0.105 µM)
6 | 3-[3,5-dimethyl-4-[2-(3-methyl-1,2,4-thiadiazole-5-thio)ethoxyl]phenyl]-5-(trifluoromethyl)-1,2,4-oxadiazole [Compound 23] |  |  | 39.78 µg/mL | 0.12 µg/mL | 
7 | Cc1cc(-c2noc(C(F)(F)F)n2)cc(C)c1OCCOc1cc(C(F)(F)F)no1 [Compound 5, 3-[3,5-dimethyl-4-[2-(3-trifluoromethylisoxazole-5-oxy)ethoxyl]phenyl]-5-(trifluoromethyl)-1,2,4-oxadiazole] | 40.12 µg/mL | 0.05 µg/mL (≈ 0.114 µM) |  |  | 
8 | Cc1cc(-c2noc(C(F)(F)F)n2)cc(C)c1OCCCOc1ncc(-c2noc(C(F)(F)F)n2)cc1F [Compound 122, 2-[3-[2,6-dimethyl-4-[5-(trifluoromethyl)-1,2,4-oxadiazole-3-yl]phenoxyl]propoxy]-3-fluoro-5-[5-(trifluoromethyl)-1,2,4-oxadiazole-3-yl]-pyridine] | 34.87 µg/mL | 0.041 µg/mL (≈ 0.0749 µM) |  |  | 
9 | Cc1nc(-c2ccc(OCCCOc3c(C)cc(-c4noc(C(F)(F)F)n4)cc3C)nc2)no1 [Compound 119, 2-[3-[2,6-dimethyl-4-[5-(trifluoromethyl)-1,2,4-oxadiazole-3-yl]phenoxyl]propoxy]-5-(5-methyl-1,2,4-oxadiazole-3-yl]-pyridine] | 36.28 µg/mL | 0.042 µg/mL (≈ 0.0883 µM) |  |  | 
10 | 6-[2,6-dimethyl-4-[(5-(trifluoromethyl)-1,2,4-oxadiazole-3-yl)phenoxyl]ethoxyl]-5-fluoro-3-cyanopyridine [Compound 46] |  |  | 38.58 µg/mL | 0.088 µg/mL | 
11 | Cc1cc(-c2noc(C(F)(F)F)n2)cc(C)c1OCCOC(C)(C)C [Compound 36, 3-[3,5-dimethyl-4-[(2-tert-butoxy)ethoxyl]phenyl]-5-(trifluoromethyl)-1,2,4-oxadiazole] | 40.12 µg/mL | 0.13 µg/mL (≈ 0.363 µM) |  |  | 
12 | Cc1cc(-c2noc(C(F)(F)F)n2)cc(C)c1OCCOc1cc(C(F)(F)F)on1 [Compound 3, 3-[3,5-dimethyl-4-[2-(5-trifluoromethylisoxazole-3-oxy)ethoxyl]phenyl]-5-(trifluoromethyl)-1,2,4-oxadiazole] | 36.68 µg/mL | 0.18 µg/mL (≈ 0.412 µM) |  |  | 
13 | 5-[2,6-dimethyl-4-[(5-(trifluoromethyl)-1,2,4-oxadiazole-3-yl)phenoxyl]ethoxyl]pyridine-2-oxy-ethylketoxime [Compound 99] | 37.81 µg/mL |  |  | 0.083 µg/mL | 
14 | Cc1cc(-c2noc(C(F)(F)F)n2)cc(C)c1OCCCOc1cnc(-c2noc(C(F)(F)F)n2)cn1 [Compound 135, 2-[5-(trifluoromethyl)-1,2,4-oxadiazole-3-yl]-5-[3-[2,6-dimethyl-4-[5-(trifluoromethyl)-1,2,4-oxadiazole-3-yl]phenoxyl]propoxy]pyrazine] | 42.18 µg/mL | 0.038 µg/mL (≈ 0.0716 µM) |  |  | 
15 | Cc1cc(-c2noc(C(F)(F)F)n2)cc(C)c1OCCOC(C)(C)C [Compound 90, 3-[3,5-dimethyl-4-[(2-tert-butoxy)ethoxyl]phenyl]-5-(trifluoromethyl)-1,2,4-oxadiazole] |  |  | 38.28 µg/mL | 0.15 µg/mL | 
16 | 4-[2,6-dimethyl-4-[(5-(trifluoromethyl)-1,2,4-oxadiazole-3-yl)phenoxyl]ethoxyl]-2-methoxyl-5-fluoropyrimidine [Compound 54] |  |  | 43.15 µg/mL | 0.067 µg/mL | 
17 | Cc1cc(OCCOc2c(C)cc(-c3noc(C)n3)cc2C)no1 [Compound 2, 3-[3,5-dimethyl-4-[2-(5-methylisoxazole-3-oxy)ethoxyl]phenyl]-5-methyl-1,2,4-oxadiazole] | 58.78 µg/mL | 0.091 µg/mL (≈ 0.276 µM) |  |  | 
18 | 6-[2,6-dimethyl-4-[(5-(trifluoromethyl)-1,2,4-oxadiazole-3-yl)phenoxyl]ethoxyl]-5-methylpyridine [Compound 51] |  |  | 40.58 µg/mL | 0.078 µg/mL | 
19 | Cc1cc(-c2noc(C(F)(F)F)n2)cc(C)c1OCCOc1cc(C(=O)O)nn1C [Compound 17, 5-[2-[2,6-dimethyl-4-[5-(trifluoromethyl)-1,2,4-oxadiazole-3-yl]phenoxyl]ethoxyl]-1-methyl-1H-pyrazole-3-carboxylic acid] | 44.39 µg/mL | 0.07 µg/mL (≈ 0.164 µM) |  |  | 
20 | 3-[3,5-dimethyl-4-[2-(4-methylthiazole-2-thio)ethoxyl]phenyl]-5-(trifluoromethyl)-1,2,4-oxadiazole [Compound 14] |  |  | 40.58 µg/mL | 0.11 µg/mL | 
21 | Cc1cc(-c2noc(C(F)(F)F)n2)cc(C)c1OCCOc1ncc(C(=O)O)c(O)n1 [Compound 32, 2-[2-[2,6-dimethyl-4-[5-(trifluoromethyl)-1,2,4-oxadiazole-3-yl]phenoxyl]ethoxyl]-4-hydroxyl-pyrimidine-5-carboxylic acid] | 40.28 µg/mL | 0.023 µg/mL (≈ 0.0522 µM) |  |  | 
22 | 3-[3,5-dimethyl-4-[2-(3-methyl-1,2,4-thiadiazole-5-thio)ethoxyl]phenyl]-5-(trifluoromethyl)-1,2,4-oxadiazole [Compound 77] |  |  | 38.58 µg/mL | 0.16 µg/mL | 
23 | 6-[2,6-dimethyl-4-[(5-(trifluoromethyl)-1,2,4-oxadiazole-3-yl)phenoxyl]ethoxyl]-3-cyanopyridine [Compound 104] |  |  | 37.56 µg/mL | 0.082 µg/mL | 
